Results from patent US12134620B2 (ARAXES PHARMA LLC, priority 2018, dated 2024).

Target: T1, KRAS G12C 1-169, his-tagged protein, GDP-loaded (Homo sapiens, UniProt P01116, G12C)
T1 construct: KRAS G12C 1-169, his-tagged protein, GDP-loaded; His tag
Assay: Biochemical assay: covalent modification of KRAS G12C, analysed by mass spectrometry (RapidFire/TOF or Q-Exactive); also: time not given here
Assay type: binding
Conditions: Modification activity, modification percentage from MS peak intensities
How it was run: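 GDP-loaded His-tagged KRAS G12C 1-169 (2 μM or 0.5 μM in 20 mM Hepes, 150 mM NaCl, 1 mM MgCl2) reacted with compound at 32 μM or 8 μM final (2% DMSO) for a set time, then quenched with formic acid. Percent covalent modification from deconvoluted intact-protein MS peak intensities (RapidFire/TOF or LC-Q Exactive).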

## C=CC(=O)N1CC2(CCN(c3nc(N4CCCC(O)C4)nc(-c4c(C)ccc5[nH]ncc45)c3C#N)C2)C1 (stereo not shown) [Compound I-122, 4-(2-acryloyl-2,6-diazaspiro[3.4]octan-6-yl)-2-(3-hydroxypiperidin-1-yl)-6-(5-methyl-1H-indazol-4-yl)pyrimidine-5-carbonitrile]
  Binding %: ++ (++ indicates binding activity from 50 to 85%)

## CC#CC(=O)N1CC2(CCN(c3nc(N4CCOCC4)nc(-c4c(C)ccc5[nH]ncc45)c3C#N)C2)C1 [Compound I-84, 4-(2-(but-2-ynoyl)-2,6-diazaspiro[3.4]octan-6-yl)-6-(5-methyl-1H-indazol-4-yl)-2-morpholinopyrimidine-5-carbonitrile]
  Binding %: + (+ indicates binding activity greater than 0% and up to 50%)

## C=CC(=O)N1CC2(CCN(c3nc(N4CCC(N5CCN(C)[C@H](C)C5)CC4)nc(-c4c(C)ccc5[nH]ncc45)c3C#N)C2)C1 [Compound I-188, 4-(2-acryloyl-2,6-diazaspiro[3.4]octan-6-yl)-2-(4-((R)-3,4-dimethylpiperazin-1-yl)piperidin-1-yl)-6-(5-methyl-1H-indazol-4-yl)pyrimidine-5-carbonitrile]
  Binding %: +++ (+++ indicates binding activity greater than 85%)

## C=CC(=O)N1CC2(CCN(c3nc(OCc4ccccn4)nc(-c4c(C)ccc5cn[nH]c45)c3C#N)C2)C1 [Compound I-93, 4-(2-acryloyl-2,6-diazaspiro[3.4]octan-6-yl)-6-(6-methyl-1H-indazol-7-yl)-2-(pyridin-2-ylmethoxy)pyrimidine-5-carbonitrile]
  Binding %: +++ (+++ indicates binding activity greater than 85%)

## C=CC(=O)N1CC2(CCN(c3cnc(OCc4ccccc4)c(-c4c(C)ccc5[nH]ncc45)c3C#N)C2)C1 [Compound I-220, 5-(2-acryloyl-2,6-diazaspiro[3.4]octan-6-yl)-2-(benzyloxy)-3-(5-methyl-1H-indazol-4-yl)isonicotinonitrile]
  Binding %: ++ (++ indicates binding activity from 50 to 85%)

## C=CC(=O)N1CC2(CCN(c3ncnc(-c4c(C)ccc5[nH]ncc45)c3C(=O)N(C)C)C2)C1 [Compound I-254, 4-(2-acryloyl-2,6-diazaspiro[3.4]octan-6-yl)-N,N-dimethyl-6-(5-methyl-1H-indazol-4-yl)pyrimidine-5-carboxamide]
  Binding %: + (+ indicates binding activity greater than 0% and up to 50%)

## C=CC(=O)N1CC2(CCN(c3nc(OCc4ccnnc4)nc(-c4c(C)ccc5[nH]ncc45)c3C#N)C2)C1 [Compound I-173, 4-(2-acryloyl-2,6-diazaspiro[3.4]octan-6-yl)-6-(5-methyl-1H-indazol-4-yl)-2-(pyridazin-4-ylmethoxy)pyrimidine-5-carbonitrile]
  Binding %: ++ (++ indicates binding activity from 50 to 85%)

## CC#CC(=O)N1CC2(CCN(c3cncc(-c4c(C)ccc5[nH]nc(N)c45)c3C#N)C2)C1 [Compound I-278, 3-(3-amino-5-methyl-1H-indazol-4-yl)-5-(2-(but-2-ynoyl)-2,6-diazaspiro[3.4]octan-6-yl)isonicotinonitrile]
  Binding %: + (+ indicates binding activity greater than 0% and up to 50%)

## C=CC(=O)N1CC2(CC(=O)N(c3nc(N4CCOCC4)nc(-c4c(C)ccc5cn[nH]c45)c3C#N)C2)C1 [Compound I-176, 4-(2-acryloyl-7-oxo-2,6-diazaspiro[3.4]octan-6-yl)-6-(6-methyl-1H-indazol-7-yl)-2-morpholinopyrimidine-5-carbonitrile]
  Binding %: + (+ indicates binding activity greater than 0% and up to 50%)

## C=CC(=O)N1CC2(CCN(c3nc(N4CCC5(CC4)CN(C)C5)nc(-c4c(C)ccc5[nH]ncc45)c3C#N)C2)C1 [Compound I-112, 4-(2-acryloyl-2,6-diazaspiro[3.4]octan-6-yl)-6-(5-methyl-1H-indazol-4-yl)-2-(2-methyl-2,7-diazaspiro[3.5]nonan-7-yl)pyrimidine-5-carbonitrile]
  Binding %: +++ (+++ indicates binding activity greater than 85%)

## C=CC(=O)N1CC2(CCN(c3nc(N4CCC(N5CCN(C6CC6)CC5)CC4)nc(-c4c(C)ccc5cnn(C)c45)c3C#N)C2)C1 [Compound I-216, 4-(2-acryloyl-2,6-diazaspiro[3.4]octan-6-yl)-2-(4-(4-cyclopropylpiperazin-1-yl)piperidin-1-yl)-6-(1,6-dimethyl-1H-indazol-7-yl)pyrimidine-5-carbonitrile]
  Binding %: ++ (++ indicates binding activity from 50 to 85%)

## C=CC(=O)N1CC2(CCN(c3nc(-n4ccnc4)nc(-c4c(C)ccc5[nH]ncc45)c3C#N)C2)C1 [Compound I-11, 4-(2-acryloyl-2,6-diazaspiro[3.4]octan-6-yl)-2-(1H-imidazol-1-yl)-6-(5-methyl-1H-indazol-4-yl)pyrimidine-5-carbonitrile]
  Binding %: +++ (+++ indicates binding activity greater than 85%)

## C=CC(=O)N1CC2(CCN(c3ncnc(-c4c(C)ccc5[nH]ncc45)c3N3CCCC3)C2)C1 [Compound I-261, 1-(6-(6-(5-methyl-1H-indazol-4-yl)-5-(pyrrolidin-1-yl)pyrimidin-4-yl)-2,6-diazaspiro[3.4]octan-2-yl)prop-2-en-1-one]
  Binding %: + (+ indicates binding activity greater than 0% and up to 50%)

## C=CC(=O)N1CC2(CCN(c3ncnc(-c4c(C)ccc5[nH]ncc45)c3O)C2)C1 [Compound I-245, 1-(6-(5-hydroxy-6-(5-methyl-1H-indazol-4-yl)pyrimidin-4-yl)-2,6-diazaspiro[3.4]octan-2-yl)prop-2-en-1-one]
  Binding %: + (+ indicates binding activity greater than 0% and up to 50%)

## C=CC(=O)N1CC2(CCN(c3nc(N4CCOCC4)nc(N4CC(O)Cc5ccccc54)c3C#N)C2)C1 (stereo not shown) [Compound I-89, 4-(2-acryloyl-2,6-diazaspiro[3.4]octan-6-yl)-6-(3-hydroxy-3,4-dihydroquinolin-1(2H)-yl)-2-morpholinopyrimidine-5-carbonitrile]
  Binding %: + (+ indicates binding activity greater than 0% and up to 50%)

## C=CC(=O)N1CC2(CCN(c3nc(N4CCN(C)CC4)nc(-c4c(C)ccc5[nH]ncc45)c3C#N)C2)C1 [Compound I-30, 4-(2-acryloyl-2,6-diazaspiro[3.4]octan-6-yl)-6-(5-methyl-1H-indazol-4-yl)-2-(4-methylpiperazin-1-yl)pyrimidine-5-carbonitrile]
  Binding %: +++ (+++ indicates binding activity greater than 85%)

## C=CC(=O)N1CC2(CCN(c3nc(N4CCC5(CCN(C)CC5)C4)nc(-c4c(C)ccc5[nH]ncc45)c3C#N)C2)C1 [Compound I-32, 4-(2-acryloyl-2,6-diazaspiro[3.4]octan-6-yl)-6-(5-methyl-1H-indazol-4-yl)-2-(8-methyl-2,8-diazaspiro[4.5]decan-2-yl)pyrimidine-5-carbonitrile]
  Binding %: ++ (++ indicates binding activity from 50 to 85%)

## C=CC(=O)N1CC2(CCN(c3nc(Oc4cnn(C)c4)nc(-c4c(C)ccc5[nH]ncc45)c3C#N)C2)C1 [Compound I-19, 4-(2-acryloyl-2,6-diazaspiro[3.4]octan-6-yl)-6-(5-methyl-1H-indazol-4-yl)-2-((1-methyl-1H-pyrazol-4-yl)oxy)pyrimidine-5-carbonitrile]
  Binding %: ++ (++ indicates binding activity from 50 to 85%)

## C=CC(=O)N1CC2(CCN(c3nc(OCc4cccc(C(F)(F)F)n4)nc(-c4c(C)ccc5cnn(C)c45)c3C#N)C2)C1 [Compound I-156, 4-(2-acryloyl-2,6-diazaspiro[3.4]octan-6-yl)-6-(1,6-dimethyl-1H-indazol-7-yl)-2-((6-(trifluoromethyl)pyri-din-2-yl)methoxy)pyrimidine-5-carbonitrile]
  Binding %: ++ (++ indicates binding activity from 50 to 85%)

## C=CC(=O)N1CC2(CCN(c3ncc(C#N)c(-c4c(C)ccc5[nH]ncc45)n3)C2)C1 [Compound I-145, 2-(2-acryloyl-2,6-diazaspiro[3.4]octan-6-yl)-4-(5-methyl-1H-indazol-4-yl)pyrimidine-5-carbonitrile]
  Binding %: + (+ indicates binding activity greater than 0% and up to 50%)

## C=CC(=O)N1CC2(CCN(c3nc(NC(=O)c4ccccn4)nc(-c4c(C)ccc5[nH]ncc45)c3C#N)C2)C1 [Compound I-41, N-(4-(2-acryloyl-2,6-diazaspiro[3.4]octan-6-yl)-5-cyano-6-(5-methyl-1H-indazol-4-yl)pyrimidin-2-yl)picolinamide]
  Binding %: +++ (+++ indicates binding activity greater than 85%)

## C=CC(=O)N1CC2(CCN(c3cncc(-c4c(C)ccc5[nH]ncc45)c3C#N)CC2)C1 [Compound I-263, 3-(2-acryloyl-2,7-diazaspiro[3.5]nonan-7-yl)-5-(5-methyl-1H-indazol-4-yl)isonicotinonitrile]
  Binding %: + (+ indicates binding activity greater than 0% and up to 50%)

## C=CC(=O)N1CC2(CCN(c3nc(OCc4ccc(N5CCOCC5)cn4)nc(-c4c(C)ccc5[nH]ncc45)c3C#N)C2)C1 [Compound I-153, 4-(2-acryloyl-2,6-diazaspiro[3.4]octan-6-yl)-6-(5-methyl-1H-indazol-4-yl)-2-((5-morpholinopyridin-2-yl)methoxy)pyrimidine-5-carbonitrile]
  Binding %: ++ (++ indicates binding activity from 50 to 85%)

## C=CC(=O)N1CC2(CCN(c3nc(-c4c(C)ccc5[nH]ncc45)cc(N4CC(N(C)C)C4)n3)C2)C1 [Compound I-143, 1-(6-(4-(3-(dimethylamino)azeti-din-1-yl)-6-(5-methyl-1H-indazol-4-yl)pyrimidin-2-yl)-2,6-diazaspiro[3.4]octan-2-yl)prop-2-en-1-one]
  Binding %: + (+ indicates binding activity greater than 0% and up to 50%)

## C=CC(=O)N1CC2(CCN(c3cc(-c4c(C)ccc5[nH]ncc45)ncn3)C2)C1 [Compound I-229, 1-(6-(6-(5-methyl-1H-indazol-4-yl)pyrimidin-4-yl)-2,6-diazaspiro[3.4]octan-2-yl)prop-2-en-1-one]
  Binding %: + (+ indicates binding activity greater than 0% and up to 50%)
